Assay results taken from PMC10913730, “Antimicrobial activity of a natural compound and analogs against multi-drug-resistant Gram-positive pathogens” (Microbiology Spectrum, 2024).
In brackets after ≈: the same amount, converted by molar mass. Read-outs that look alike come from different tables or passages of the source.

How the values were obtained:
MRSA isolate TCH 1516 [1] = test: Single-step resistance development; type: cell-based, Staphylococcus aureus
Protocol: For the single-step study, bacteria were grown to the stationary phase as described above. Bacteria at a concentration of 1E9 CFU were then plated onto C59 and vancomycin-loaded plates containing 1×, 2×, 4×, and 8× MIC concentrations of the therapeutic agents with 1% DMSO. Bacteria were incubated at 37°C for 48 hours, and colony counts were enumerated to calculate the frequency of resistance development, as described in the literature ([45], [46]).

[2] = system: MRSA isolates SA LL 06 and TCH 1516; test: Kill kinetics against stationary-phase MRSA; type: cell-based, Staphylococcus aureus; settings: shaking, 37°C
Protocol: MRSA isolates, TCH 1516 and SA LL 06, were grown to the stationary phase, and the rate of bacterial killing was determined. Frozen bacterial stocks were streaked onto TSA plates and grown overnight. A single colony was selected and incubated overnight in LB broth at 37°C with constant orbital shaking at 200 RPM. Next, bacterial suspension was washed twice with 150 mM sodium chloride and resuspended in MH broth at a concentration of 1.2E9 CFU/mL. […] Glass tubes containing 5 mL of bacteria and drug solutions were grown in a shaking incubator at 37°C. At 0, 4, 8, and 24 hours, bacterial suspensions were collected, serially diluted, and plated onto a blood agar plate. Bacteria were allowed to grow for 24 hours and were enumerated to yield colony-forming units per milliliter.

[3] = system: Staphylococcus epidermidis isolates; test: microbe, parasite or virus in culture; type: cell-based
MRSA isolates = test: MIC/MBC, CLSI broth microdilution, MRSA isolates; type: cell-based, Staphylococcus aureus
MRSA isolate TCH 1516 [4] = test: Resistance acquisition during serial passage; type: cell-based, Staphylococcus aureus; settings: serial passage
Protocol: MRSA isolate TCH 1516 was grown to the stationary phase (OD650 = 1.0) in 10 mL of MH broth. […] The second highest drug concentration resulting in bacterial growth (OD650 >1.0) was used as the inoculum after a 1:1,000 dilution for subsequent steps, every 24 hours, for up to 21 days.

[5] = system: MRSA isolate SAD05 biofilms; type: cell-based, Staphylococcus aureus; settings: 72-hour biofilms of SAD05, MBEC assay
[6] = 21 Staphylococcus epidermidis isolates
[7] = Staphylococcus aureus, MRSA, pH 5.5, MRSA 0606, pH 5.5
[8] = Staphylococcus aureus, MRSA, pH 5.5, MRSA 0608, pH 5.5
[9] = Staphylococcus aureus, MRSA, pH 5.5, MRSA 0634, pH 5.5
[10] = Staphylococcus aureus, MRSA, pH 5.5, MRSA 0641, pH 5.5
[11] = Staphylococcus aureus, MRSA, pH 5.5, MRSA 0646, pH 5.5
[12] = Staphylococcus aureus, MRSA, pH 5.5, TCH 1516, pH 5.5
[13] = Staphylococcus aureus, MRSA, pH 6.5, MRSA 0606, pH 6.5
[14] = Staphylococcus aureus, MRSA, pH 6.5, MRSA 0608, pH 6.5
[15] = Staphylococcus aureus, MRSA, pH 6.5, MRSA 0634, pH 6.5
[16] = Staphylococcus aureus, MRSA, pH 6.5, MRSA 0641, pH 6.5
[17] = Staphylococcus aureus, MRSA, pH 6.5, MRSA 0646, pH 6.5
[18] = Staphylococcus aureus, MRSA, pH 6.5, TCH 1516, pH 6.5

In the case of `CN[C@H](CC(C)C)C(=O)N[C@H]1C(=O)N[C@@H](CC(N)=O)C(=O)N[C@H]2C(=O)N[C@H]3C(=O)N[C@H](C(=O)N[C@H](C(=O)O)c4cc(O)cc(O)c4-c4cc3ccc4O)[C@H](O)c3ccc(c(Cl)c3)Oc3cc2cc(c3O[C@@H]2O[C@H](CO)[C@@H](O)[C@H](O)[C@H]2O[C@H]2C[C@](C)(N)[C@H](O)[C@H](C)O2)Oc2ccc(cc2Cl)[C@H]1O` [Vancomycin, vancomycin, reference compound], the “frequency of resistance acquisition” value (MRSA isolate TCH 1516 [1]; TCH 1516, 2× MIC) is reported as 1.83 × 10^−8 ± 7.10 × 10^−9, the “frequency of resistance acquisition” value (MRSA isolate TCH 1516 [1]; TCH 1516, 4× MIC) is reported as 1.56 × 10^−9 ± 7.12 × 10^−10 and the “frequency of resistance acquisition” value (MRSA isolate TCH 1516 [1]; TCH 1516, 8× MIC) is reported as 5.77 × 10^−10 ± 2.77 × 10^−10. For the same compound, the “growth on drug-loaded plates” value (MRSA isolate TCH 1516 [1]; TCH 1516 stationary phase, C59 as low as 2× MIC, vancomycin up to 8× MIC) was “bacterial growth was observed”, the “bacterial killing after 24 hours” value ([2]; stationary-phase SA LL 06, C59 at 1× and 2× MIC) was “complete lack of bacterial inhibition” and the “bacterial killing after 24 hours” value ([2]; stationary-phase TCH 1516) was “significantly higher bacterial burden”. The MBC range [3, 6] was 2 to 16 µg/mL, the MIC range [3, 6] was 1 to 8 µg/mL and the MIC90 ([3]; Staphylococcus epidermidis) was 4 µg/mL (≈ 2.76 µM). For the same compound, the MBC ([3]; Staphylococcus epidermidis, read-out: MBC90) was 8 µg/mL (≈ 5.52 µM), the MBC (MRSA isolates; MRSA 0606, pH 7.4) was 2 µg/mL (≈ 1.38 µM) and the MIC (MRSA isolates; MRSA 0606, pH 7.4) was 2 µg/mL (≈ 1.38 µM). For the same compound, the MBC (MRSA isolates; MRSA 0608, pH 7.4) was 6 µg/mL (≈ 4.14 µM), the MIC (MRSA isolates; MRSA 0608, pH 7.4) was 2 µg/mL (≈ 1.38 µM) and the MBC (MRSA isolates; MRSA 0634, pH 7.4) was 6 µg/mL (≈ 4.14 µM). It also gave an MIC (MRSA isolates; MRSA 0634, pH 7.4) of 2 µg/mL (≈ 1.38 µM), an MBC (MRSA isolates; MRSA 0641, pH 7.4) of 4 µg/mL (≈ 2.76 µM) and an MIC (MRSA isolates; MRSA 0641, pH 7.4) of 1 µg/mL (≈ 0.69 µM). The MBC (MRSA isolates; MRSA 0646, pH 7.4) was 6 µg/mL (≈ 4.14 µM), the MIC (MRSA isolates; MRSA 0646, pH 7.4) was 2 µg/mL (≈ 1.38 µM) and the MIC90 (MRSA isolates; Staphylococcus aureus, MRSA, 39 evaluated MRSA isolates, CLSI broth microdilution) was 2 µg/mL (≈ 1.38 µM). The MIC (MRSA isolates; Staphylococcus aureus, MRSA, SA LL 06, as given for the kill kinetic assay) was 1 µg/mL (≈ 0.69 µM), the MIC (MRSA isolates; Staphylococcus aureus, MRSA, TCH 1516, as given for the kill kinetic assay) was 4 µg/mL (≈ 2.76 µM) and the MBC (MRSA isolates; [7]) was 2 µg/mL (≈ 1.38 µM). For the same compound, the MIC (MRSA isolates; [7]) was 2 µg/mL (≈ 1.38 µM), the MBC (MRSA isolates; [8]) was 4 µg/mL (≈ 2.76 µM) and the MIC (MRSA isolates; [8]) was 4 µg/mL (≈ 2.76 µM). The MBC (MRSA isolates; [9]) was 8 µg/mL (≈ 5.52 µM), the MIC (MRSA isolates; [9]) was 2 µg/mL (≈ 1.38 µM) and the MBC (MRSA isolates; [10]) was 2 µg/mL (≈ 1.38 µM). The MIC (MRSA isolates; [10]) was 2 µg/mL (≈ 1.38 µM), the MBC (MRSA isolates; [11]) was 8 µg/mL (≈ 5.52 µM) and the MIC (MRSA isolates; [11]) was 2 µg/mL (≈ 1.38 µM). The MBC (MRSA isolates; [12]) was 4 µg/mL (≈ 2.76 µM), the MIC (MRSA isolates; [12]) was 2 µg/mL (≈ 1.38 µM) and the MBC (MRSA isolates; Staphylococcus aureus, MRSA, pH 5.5, read-out: Average MBC, average of six MRSA isolates, pH 5.5) was 4.7 µg/mL (≈ 3.24 µM). For the same compound, the MIC (MRSA isolates; Staphylococcus aureus, MRSA, pH 5.5, read-out: Average MIC, average of six MRSA isolates, pH 5.5) was 2.3 µg/mL (≈ 1.59 µM), the MBC (MRSA isolates; [13]) was 4 µg/mL (≈ 2.76 µM) and the MIC (MRSA isolates; [13]) was 1 µg/mL (≈ 0.69 µM). It also gave an MBC (MRSA isolates; [14]) of 2 µg/mL (≈ 1.38 µM), an MIC (MRSA isolates; [14]) of 2 µg/mL (≈ 1.38 µM) and an MBC (MRSA isolates; [15]) of 4 µg/mL (≈ 2.76 µM). The MIC (MRSA isolates; [15]) was 2 µg/mL (≈ 1.38 µM), the MBC (MRSA isolates; [16]) was 2 µg/mL (≈ 1.38 µM) and the MIC (MRSA isolates; [16]) was 1 µg/mL (≈ 0.69 µM). For the same compound, the MBC (MRSA isolates; [17]) was 2 µg/mL (≈ 1.38 µM), the MIC (MRSA isolates; [17]) was 2 µg/mL (≈ 1.38 µM) and the MBC (MRSA isolates; [18]) was 2 µg/mL (≈ 1.38 µM). The MIC (MRSA isolates; [18]) was 1 µg/mL (≈ 0.69 µM), the MBC (MRSA isolates; Staphylococcus aureus, MRSA, pH 6.5, read-out: Average MBC, average of six MRSA isolates, pH 6.5) was 2.3 µg/mL (≈ 1.59 µM) and the MIC (MRSA isolates; Staphylococcus aureus, MRSA, pH 6.5, read-out: Average MIC, average of six MRSA isolates, pH 6.5) was 1.5 µg/mL (≈ 1.04 µM). For the same compound, the MBC (MRSA isolates; Staphylococcus aureus, MRSA, pH 7.4, read-out: Average MBC, average of six MRSA isolates, pH 7.4) was 4.2 µg/mL (≈ 2.9 µM), the MIC (MRSA isolates; Staphylococcus aureus, MRSA, pH 7.4, read-out: Average MIC, average of six MRSA isolates, pH 7.4) was 1.7 µg/mL (≈ 1.17 µM) and the MBC (MRSA isolates; Staphylococcus aureus, MRSA, read-out: MBC90, 39 evaluated MRSA isolates, CLSI broth microdilution) was 16 µg/mL (≈ 11 µM). For the same compound, the MBC (MRSA isolates; TCH 1516, pH 7.4) was 1 µg/mL (≈ 0.69 µM), the MIC (MRSA isolates; TCH 1516, pH 7.4) was 1 µg/mL (≈ 0.69 µM) and the “change of MIC and MBC with the reduction in pH” value (MRSA isolates; six MRSA isolates, pH lowered to 5.5) was “increased”. For the same compound, the “initial increase in MIC” value (MRSA isolate TCH 1516 [4]; within 7 days, stable thereafter) was “sixfold” and the “concentration that completely eradicated biofilms” value [5] was “did not demonstrate activity against MRSA biofilms”.

`CC(=O)NC[C@H]1CN(c2ccc(N3CCOCC3)c(F)c2)C(=O)O1` [Linezolid, linezolid, reference compound] was tested, and the MBC (MRSA isolates; Staphylococcus aureus, 39 evaluated MRSA isolates, CLSI broth microdilution, read-out: MBC90) was > 32 µg/mL, the MIC90 (MRSA isolates; Staphylococcus aureus, 39 evaluated MRSA isolates, CLSI broth microdilution, read-out: MIC90) was 4 µg/mL (≈ 11.9 µM) and the “increase in MIC” value (MRSA isolate TCH 1516 [4]; after 21 days) was 16 fold.
